In one assay the target is T1, N-type calcium channel (Rattus norvegicus, UniProt Q02294).
T1 construct: from tissue; host or cells: freshly dissociated sympathetic ganglion cells of Wistar rats (2 to 4 weeks old)
In words: Inhibition of N-type calcium channel: calcium currents in cells of maxillary sympathetic ganglions of rats, whole cell voltage clamp. Conditions: rat maxillary sympathetic ganglion cells, depolarization from -60 mV to 0 mV, barium as charge carrier. It counts as cell-based. The procedure: (Test Examples) Inhibition activity of N-type calcium channel:
1) Preparation of cells of maxillary sympathetic ganglions of rats:
The cervix of each of Wistar rats (2 to 4 weeks old) was opened to expose the maxillary ganglions under anesthesia with pentobarbital. A pair of the ganglions were removed and immediately washed with Ca^2+-free Tyrode solution cooled with ice. Each ganglion was cut into 3 or 4 pieces and kept in the Ca^2+-free Tyrode solution for 15 minutes. Then, these pieces were treated with papain [Washington Biochemicals (lot#35J557); 20 U/ml] and then with a mixture of type-2 collagenase [Washington Biochemicals (CLS2); 5900 U/ml] and dispase [Calbiochem (lot#1312973); 16 mg/ml] for one hour. After enzymatic treatment, the ganglion cells were mechanically isolated by pipetting. The isolated ganglion cells were used for the experiments within 6 hours.
2) Determination of calcium electric current:
The calcium electric current was determined by the whole cell voltage clamp method under the fixed membrane potential. The pipette electrode was pulled from glass tube (inner diameter: 1.5 mm; Narishige) in two stage of a vertical pipette puller (PB-7; Narishige). The ionic current was amplified with a patch amplifier (CEZ-2300; Nihon Kohden Corporation). The noises were cut at 10 kHz (E-3201B, NF Electronic Instrument) and then the ionic current was monitored on a storage oscilloscope (DS-9121, Iwatsu) and, at the same time, recorded with a DAT data recorder (RD-120TE, TEAC). Then it was passed through a 1 kHz filter and recorded in a computer (Compaq DeskPro) with PCLAMP software (Axon Instrument) of 3 kHz. All the experiments were performed at room temperature (25±2° C.). In the measurement of current through the calcium channel, 10 mM barium (composition of the solution: shown below) was used in place of calcium as the charge carrier. The transmission of barium through the calcium channel was better than that of calcium in the sympathetic ganglion cells, and the calcium-dependent channel inactivation was slight when barium was used.
The test compounds were rapidly administered by Y-tube method by Murase et al. [Brain Res. 525, 84 (1990)]. Each compound was dissolved in DMSO, preparing 10 mM mother solution. At the highest drug concentration used, the vehicle (0.1%) had no significant effect on the calcium current.
2) Composition of Normal Tyrode's solution: NaCl; 143, KCl; 4, MgCl2; 0.5; CaCl2; 1.8, glucose; 5.5, NaH2PO4; 0.33, HEPES; 5 (Mm). The pH was adjusted to 7.4 with tris-OH. Composition of Ca-free Tyrode's solution: the same as that of the Normal Tyrode's solution except that it was free of CaCl2.
External solution for the determination of calcium electric current (mM): TEACL; 144, CsCl; 4, BaCl2; […], MgCl2; 0.53, glucose: 5.5, HEPES; 5 (pH 7.4)
Solution in patch electrode: CsCl; 140, MgCl2; 5, CaCl2; 0.28, HEPES; 10 (pH 7.2), EGTA; 5 (pH 7.2).
The electric current was induced by the depolarization for 50 ms, from the holding potential of −60 mV to the test potential of 0 mV. This test potential was the peak in the current/voltage relationship, and the inhibition effect was examined at this point at which the error by the drift of the holding potential was reduced. As Tsein et al. reported, the maxillary ganglion cells were substantially free of L-type component (not more than 5%), and at least 85% thereof comprised the N-type component. […] The inhibition activity of the dihydropyridine derivatives (1 uM) thus determined was 10 to 70%.

Another assay has as its system L-type calcium channel. Put plainly: L-type calcium channel inhibition.

Molecules are shown by their SMILES.

T1 sequence (Q02294 whole entry): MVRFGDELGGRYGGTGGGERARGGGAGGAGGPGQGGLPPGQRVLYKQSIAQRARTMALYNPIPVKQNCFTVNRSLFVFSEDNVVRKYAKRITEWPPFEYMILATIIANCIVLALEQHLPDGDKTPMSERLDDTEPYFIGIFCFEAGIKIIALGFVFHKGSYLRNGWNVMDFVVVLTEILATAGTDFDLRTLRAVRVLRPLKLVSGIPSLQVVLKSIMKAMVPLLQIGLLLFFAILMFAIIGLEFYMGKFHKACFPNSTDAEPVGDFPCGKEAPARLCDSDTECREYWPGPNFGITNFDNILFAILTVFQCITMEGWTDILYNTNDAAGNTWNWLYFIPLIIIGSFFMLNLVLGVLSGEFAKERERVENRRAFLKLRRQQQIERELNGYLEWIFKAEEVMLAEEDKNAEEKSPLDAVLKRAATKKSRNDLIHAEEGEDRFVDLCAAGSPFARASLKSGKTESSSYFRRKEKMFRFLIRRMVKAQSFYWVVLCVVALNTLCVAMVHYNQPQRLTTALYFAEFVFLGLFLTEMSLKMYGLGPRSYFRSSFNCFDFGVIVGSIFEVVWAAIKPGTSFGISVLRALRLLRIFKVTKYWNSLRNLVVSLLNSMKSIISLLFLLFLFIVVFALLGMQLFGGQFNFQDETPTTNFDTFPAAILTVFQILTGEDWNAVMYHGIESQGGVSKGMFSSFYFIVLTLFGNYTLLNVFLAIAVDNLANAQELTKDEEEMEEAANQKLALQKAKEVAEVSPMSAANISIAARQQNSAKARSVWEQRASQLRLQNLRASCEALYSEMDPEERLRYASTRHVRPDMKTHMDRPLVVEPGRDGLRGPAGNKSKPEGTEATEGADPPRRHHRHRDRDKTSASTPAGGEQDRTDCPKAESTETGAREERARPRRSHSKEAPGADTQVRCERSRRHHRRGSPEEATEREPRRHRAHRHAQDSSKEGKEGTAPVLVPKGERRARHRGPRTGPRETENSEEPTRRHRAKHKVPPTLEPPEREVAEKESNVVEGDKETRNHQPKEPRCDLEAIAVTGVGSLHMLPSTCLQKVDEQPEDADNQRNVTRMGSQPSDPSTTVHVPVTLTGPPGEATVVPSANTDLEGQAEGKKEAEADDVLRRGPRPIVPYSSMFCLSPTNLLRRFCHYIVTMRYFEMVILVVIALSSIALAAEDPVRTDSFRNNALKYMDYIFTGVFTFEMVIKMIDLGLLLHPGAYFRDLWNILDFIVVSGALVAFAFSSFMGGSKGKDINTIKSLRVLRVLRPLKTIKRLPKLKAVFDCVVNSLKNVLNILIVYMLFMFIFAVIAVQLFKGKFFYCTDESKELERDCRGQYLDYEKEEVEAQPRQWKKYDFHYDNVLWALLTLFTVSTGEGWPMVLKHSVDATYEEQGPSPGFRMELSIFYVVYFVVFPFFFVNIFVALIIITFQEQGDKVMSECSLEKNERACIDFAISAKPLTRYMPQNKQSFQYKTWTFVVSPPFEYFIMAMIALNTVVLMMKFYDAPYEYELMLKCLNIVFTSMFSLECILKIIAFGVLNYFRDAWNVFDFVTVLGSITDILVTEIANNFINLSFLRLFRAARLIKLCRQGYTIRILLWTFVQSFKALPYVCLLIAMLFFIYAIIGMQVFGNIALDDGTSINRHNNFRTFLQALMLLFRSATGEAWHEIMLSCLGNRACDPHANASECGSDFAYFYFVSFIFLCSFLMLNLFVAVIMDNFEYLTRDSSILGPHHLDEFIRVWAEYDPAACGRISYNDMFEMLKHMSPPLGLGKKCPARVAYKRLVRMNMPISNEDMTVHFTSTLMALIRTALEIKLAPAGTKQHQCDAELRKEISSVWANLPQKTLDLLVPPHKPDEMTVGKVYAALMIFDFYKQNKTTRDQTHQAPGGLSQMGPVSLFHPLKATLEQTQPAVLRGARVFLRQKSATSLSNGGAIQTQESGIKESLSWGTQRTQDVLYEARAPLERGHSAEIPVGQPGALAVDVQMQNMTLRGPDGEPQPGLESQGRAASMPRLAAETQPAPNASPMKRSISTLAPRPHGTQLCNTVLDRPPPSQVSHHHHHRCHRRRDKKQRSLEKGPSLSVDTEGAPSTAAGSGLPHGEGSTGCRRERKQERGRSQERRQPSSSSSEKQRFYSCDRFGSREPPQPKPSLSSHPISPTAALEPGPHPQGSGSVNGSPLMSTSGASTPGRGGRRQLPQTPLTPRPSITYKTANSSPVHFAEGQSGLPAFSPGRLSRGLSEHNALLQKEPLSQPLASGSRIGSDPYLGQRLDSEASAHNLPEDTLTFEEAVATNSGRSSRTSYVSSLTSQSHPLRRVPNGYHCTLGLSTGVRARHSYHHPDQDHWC
T1 sequence (P54287 whole entry partner): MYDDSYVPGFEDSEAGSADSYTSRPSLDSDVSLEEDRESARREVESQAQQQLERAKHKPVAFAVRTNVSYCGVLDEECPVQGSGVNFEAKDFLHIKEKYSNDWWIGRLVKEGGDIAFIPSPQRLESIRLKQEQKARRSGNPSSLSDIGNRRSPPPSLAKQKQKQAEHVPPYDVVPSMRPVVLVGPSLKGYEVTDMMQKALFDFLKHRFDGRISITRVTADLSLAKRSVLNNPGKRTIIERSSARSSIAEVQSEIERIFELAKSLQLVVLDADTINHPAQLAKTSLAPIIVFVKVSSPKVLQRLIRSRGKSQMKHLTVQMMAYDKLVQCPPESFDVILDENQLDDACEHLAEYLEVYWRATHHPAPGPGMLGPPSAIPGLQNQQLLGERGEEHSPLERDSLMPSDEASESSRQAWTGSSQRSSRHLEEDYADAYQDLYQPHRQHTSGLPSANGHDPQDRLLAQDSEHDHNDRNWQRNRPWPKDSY
T1 sequence (P54290 25-944 partner limits assumed): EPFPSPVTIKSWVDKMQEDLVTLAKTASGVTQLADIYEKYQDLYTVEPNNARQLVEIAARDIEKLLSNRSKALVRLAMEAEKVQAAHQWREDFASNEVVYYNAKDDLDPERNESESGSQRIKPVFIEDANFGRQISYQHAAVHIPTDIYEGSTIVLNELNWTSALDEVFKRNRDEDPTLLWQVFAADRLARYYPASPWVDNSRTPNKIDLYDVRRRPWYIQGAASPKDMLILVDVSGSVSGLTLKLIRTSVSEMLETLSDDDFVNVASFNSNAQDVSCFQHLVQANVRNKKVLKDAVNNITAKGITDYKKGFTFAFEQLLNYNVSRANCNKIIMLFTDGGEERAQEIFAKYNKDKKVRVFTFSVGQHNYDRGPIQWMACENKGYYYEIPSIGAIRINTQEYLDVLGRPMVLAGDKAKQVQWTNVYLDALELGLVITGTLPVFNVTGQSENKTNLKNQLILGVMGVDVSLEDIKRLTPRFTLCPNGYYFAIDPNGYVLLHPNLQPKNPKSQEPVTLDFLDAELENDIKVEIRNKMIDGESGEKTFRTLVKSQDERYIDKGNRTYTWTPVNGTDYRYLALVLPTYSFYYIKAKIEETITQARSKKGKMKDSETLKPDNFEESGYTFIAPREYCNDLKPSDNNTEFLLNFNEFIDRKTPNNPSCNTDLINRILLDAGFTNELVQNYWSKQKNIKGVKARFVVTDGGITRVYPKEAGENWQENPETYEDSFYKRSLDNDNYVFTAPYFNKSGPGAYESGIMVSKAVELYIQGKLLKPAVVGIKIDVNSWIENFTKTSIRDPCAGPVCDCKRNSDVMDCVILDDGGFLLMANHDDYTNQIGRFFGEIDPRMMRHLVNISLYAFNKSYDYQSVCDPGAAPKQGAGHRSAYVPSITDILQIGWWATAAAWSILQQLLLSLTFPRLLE
T1 sequence (P54290 945-1091 partner limits assumed): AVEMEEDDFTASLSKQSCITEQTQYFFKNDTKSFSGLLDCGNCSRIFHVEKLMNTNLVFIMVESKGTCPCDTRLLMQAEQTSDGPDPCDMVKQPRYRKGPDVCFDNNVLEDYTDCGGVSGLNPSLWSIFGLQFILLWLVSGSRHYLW

For the compound `CC1=C(C(=O)O)C(c2cccc(C#N)c2)C(C(=O)OC/C=C/c2ccccc2)=C(C)N1` (stereo not drawn) [Example 3, mono(3-phenyl-2-propene-1-yl) 4-(3-cyanophenyl)-2,6-dimethyl-1,4-dihydropyridine-3,5-dicarboxylate], the inhibition at 0.1 µM on N-type calcium channel was determined as 47.5%. Moreover, in the assay with L-type calcium channel, the half-inhibitory concentration (IC50) was found to be 6.3 nM and the “L-type inhibition 100 nM (%)” value stood at 98%.

With `CC1=C(C(N)=O)C(c2cccc(Cl)c2)C(C(=O)OC/C=C/c2ccccc2)=C(C)N1` (stereo not drawn) [Example 8, (3-phenyl-2-propene-1-yl) 5-carbamoyl-4-(3-chlorophenyl) -2,6-dimethyl-1,4-dihydropyridine-3-carboxylate], on N-type calcium channel, the inhibition at 0.1 µM was determined as 31.4%. Besides, in the assay with L-type calcium channel, the IC50 stood at 32 nM and the “L-type inhibition 100 nM (%)” value is 75%.

Consider `CC1=C(C#N)C(c2cccc(Cl)c2)C(C(=O)OC/C=C/c2ccccc2)=C(C)N1` (stereo not drawn) [Example 9, (3-phenyl-2-propene-1-yl) 4-(3-chlorophenyl) -5-cyano-2,6-dimethyl-1,4-dihydropyridine-3-carboxylate], for which, on N-type calcium channel, the inhibition at 0.1 µM stood at 21.3%. In addition, in the assay with L-type calcium channel, the half-inhibitory concentration (IC50) came to 82 nM and the “L-type inhibition 100 nM (%)” value was 56%.

On to `CC1=C(C(=O)O)C(c2cccc(Cl)c2)C(C(=O)OCC(=O)Nc2ccccc2)=C(C)N1` (stereo not drawn) [Example 14, mono(phenylcarbamoylmethyl) 4-(3-chlorophenyl)-2,6-dimethyl-1,4-dihydropyridine-3,5-dicarboxylate], for which, at N-type calcium channel, the inhibition at 0.1 µM turned out to be 28.6%. Also, in the assay with L-type calcium channel, the half-inhibitory concentration (IC50) was 50 nM and the “L-type inhibition 100 nM (%)” value came to 70%.

For `COc1cccc(C2C(C(=O)O)=C(C)NC(C)=C2C(=O)OC/C=C/c2ccccc2)c1` (stereo not drawn) [Example 20, mono(3-phenyl-2-propene-1-yl) 4-(3-methoxyphenyl)-2,6-dimethyl-1,4-dihydropyridine-3,5-dicarboxylate], the inhibition at 0.1 µM on N-type calcium channel came to 24.3%. Also, in the assay on L-type calcium channel, the half-maximal inhibitory concentration (IC50) amounted to 250 nM and the “L-type inhibition 100 nM (%)” value is listed as 38%.

These data come from patent publication US6350766B1, “Dihydropyridine derivative” (Ajinomoto Co., Inc., priority 1997, dated 2002).
